# Test results reported in patent US20140235649A1, “USE OF PHOSPHATASE INHIBITORS OR HISTONE DEACETYLASE INHIBITORS TO TREAT DISEASES CHARACTERIZED BY LOSS OF PROTEIN FUNCTION” (LIXTE BIOTECHNOLOGY, INC., priority 2011, published 2014).
# “Also recorded” adds a separate entry of the source.
# Legend:
# [1] = test system: missense glucocerebrosidase; conditions: previously found (REF); cited from earlier work
# [2] = test system: VHL protein; assay: VHL protein levels in tumor cells from VHL derived tumors (Examples 6-7); conditions: Example 6, versus untreated cells
# [3] = test system: SDHB protein; assay: SDHB protein levels in tumor cells from SDHB derived tumors (Examples 9-10); conditions: Example 9, versus untreated cells
# [4] = test system: mutant SDHB protein; assay: Immunoprecipitation of mutant SDHB: ubiquitination and Hsp90 binding; type: cell-based, human; conditions: immunoprecipitated ΔSDHB-R49Q (FIG. 14E)
# Description: Protein was extracted from cell cultures using IP lysis buffer with Halt proteinase inhibitor cocktail (Thermo Scientific). Four hundred microgram of total protein was precipitated with Flag antibody (1:200, Origene) using a DynaBeads Protein G immunoprecipitation kit (Invitrogen). Proteins were precipitated overnight at 4° C. and eluted for Western blot analysis.
# [5] = test system: ΔSDHB-L65P; assay: ΔSDHB-L65P protein half-life through CHX treatment, Western blot, HeLa cells; type: cell-based, human
# Description: Western blot analysis was performed as previously described with minor modifications (Zhuang et al, 2011). Microdissected tumor tissue and cell pellets were extracted for protein using RIPA lysis buffer supplemented with Halt proteinase inhibitor cocktail (Thermo Scientific, Rockford, Ill.). Protein was vortexed at 4° C. for 20 min and centrifuged in 12,000 g for 10 min at 4° C. Supernatant was collected and protein quantity was identified through a Bio-Rad (Hercules, Calif.) Protein Assay kit. Equal amount of proteins were separated on NuPAGE 4-12% Bis-Tris gel (Invitrogen, Carlsbad, Calif.) and transferred to PVDF membranes (Invitrogen). Membranes were blocked in 5% skim dried milk in PBST and blotted with primary antibody. Protein expression was identified through chemiluminescence kit (Thermo Scientific). The following antibodies were used: SDHA (1:1,000, Cell Signaling Technology, Beverly, Mass.), SDHB (1:1,000, Sigma-Aldrich, St. Louis Mo.), Flag (1:2,000, Origene, Rockville, Md.), Ubiquitin (1:1,000, Abcam, Cambridge, Mass.), HA (1:2,000, Origene), Hsp90 (1:1,000, Cell Signaling Technology) and β-Actin (1:1,000, Santa Cruz Biotechnology, Inc., Santa Cruz, Calif.).
# HeLa cells were maintained in DMEM containing 10% FBS (Invitrogen). Cells were transfected with SDHB vectors by FuGENE 6 transfection reagent (Roche, Indianapolis, Ind.). Medium was changed 4 hours after transfection and cells were maintained 48 hours before cycloheximide (20 μg/mL, Sigma-Aldrich) treatment.
# Ubiquitin-HA vector was described previously (Kamitani et al. (1997)). Human wild type SDHB gene was cloned into pCMV6-Entry vector (Origene). Hot spot missense mutations in SDHB related PHEOs/PGLs based on previous findings (Van Nederveen et al. (2006); Henderson et al. (2009); Pawlu et al. (2005)). Mutagenesis was performed based on wild type SDHB vector using a Quikchange Lightning Site-Directed Mutagenesis Kit (Agilent, Santa Clara, Calif.). For each mutant, the sequence of SDHB gene was verified through sequencing the entire coding region of the gene. Vectors were purified through PureLink HiPure Plasmid Maxiprep kit (Invitrogen) for transfection and cell free protein expression.
# [6] = test system: beta-glucocerebrosidase (GBA); assay: GBA levels in human cells from Gaucher's disease type 1 / type 3 patients (Examples 2-4)
# [7] = test system: ΔGBA-L444P; assay: Metabolic [35S] pulse chase assay, HeLa cells with ΔGBA-L444P vector; type: cell-based, human; conditions: L444P mutant
# Description: (§1) Human GBA gene was cloned into pCMV6-Entry vector (Origene; Rockville, Md.). Mutagenesis was performed using a QuikChange Lightning Site-directed mutagenesis kit (Agilent; Santa Clara, Calif.). Mutagenesis reaction was conducted using primers with N370S and L444P mutation sites. For each mutant, the sequence of GBA genes was verified by sequencing the entire coding regions.
# (§2) Metabolic [^35S] pulse chase assay was performed as previously described with minor modifications (16). A total of 5×10^5 HeLa cells were transfected with GBA vectors through FuGene 6 transfection reagent (Roche; Indianapolis, Ind.). Cells were used for pulse chase assay 24 hr after transfection. Cells were starved in methionine-depleted medium for 15 min followed by 15 min labeling in methionine-free Delbecco's modified Eagle medium (DMEM) supplemented with 10% FBS and 0.2 mCi/mL [^35S]-methionine ([…] specific activity, Perkin Elmer). The cells were then chased in DMEM with 10% FBS and 3 mg/mL methionine. Cells were extracted for protein within various durations after radioactive labeling. Cells were lysed in RIPA lysis buffer containing with Halt proteinase inhibitor cocktail (Thermo; Waltham, Mass.). GBA proteins were purified through immunoprecipitation using 200 ug total lysate with Flag antibody (Origene; Rockville, Md.). Precipitated proteins were resolved on NuPAGE Novex 4-12% Bis-Tris Gel (Invitrogen; Carlesbad, Calif.) and measured by liquid scintillation counting. The gel was fixed and incubated in EN3HANCE (Perkin Elmer; Waltham, Mass.) for 45 min and dried for X-ray film exposure.
# [8] = test system: ΔGBA-N370S; assay: Metabolic [35S] pulse chase assay, HeLa cells with ΔGBA-N370S vector; type: cell-based, human; conditions: N370S mutant
# Description: as §1, §2
smiles,measurement,setting,value
O=C(CCCCCNC(=O)c1ccccc1S)Nc1ccccc1 [LB-201],co-translational degradation of missense glucocerebrosidase,[1],protect missense glucocerebrosidase from co-translational degradation
same,VHL levels,[2],significantly higher than in untreated cells
same,degradation of VHL,[2],decreased degradation of VHL
same,SDHB levels,[3],significantly higher than in untreated cells
same,degradation of SDHB,[3],decreased degradation of SDHB
same,Hsp90 binding to mutant SDHB,[4],also decreased
same,SDHB mutant protein ubiquitination,[4],decreased SDHB mutant protein ubiquitination
same,degradation / loss of mutant SDHB protein,[5]; L65P mutant,slowed the degradation of mutant protein; also recorded: decreased the loss of mutant SDHB
CN1CCN(C(=O)C2C(C(=O)O)[C@H]3CC[C@@H]2O3)CC1 (stereo partly shown) [LB100],GBA levels / amount of GBA,"[6]; Gaucher's disease type 1 and type 3 cells, 24 hours (Example 3, FIG. 1-3)","increased; also recorded: increased in all treatments, and the increase was not dose-dependent; also recorded: significantly higher than in untreated cells"
same,GBA levels,"[6]; Gaucher's disease type 3 cells, 24 hours (Example 2)",significantly higher than in untreated cells
CC1=C(O)C(=O)C=C2C1=CC=C1[C@@]2(C)CC[C@@]2(C)[C@@H]3C[C@](C)(C(=O)O)CC[C@]3(C)CC[C@]12C [celastrol],increase in [35S]-GBA residue,[7],104%
same,increase in radioactively labeled protein quantity,[8],33%
same,SDHB protein remaining intact,"[5]; L65P, after a 2 hr CHX treatment",more than 50%
